Results taken from the supplement of paper PMC10307832.

Legend:
Assay in all cases: relative viability (nuclei count vs DMSO), 5 days (fraction); higher = more cells survive
[1] = tested on: 201T
Summary of the method: (§1)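 Lung cancer cell lines in 1536-well plates were dosed by pin tool the day after seeding, either with one drug alone or with a fixed anchor-drug dose plus five library-drug doses (not always all listed) in √10 steps. After 5 days, cells were fixed and their nuclei stained in one step (final 0.05% Triton X-100, 1% formaldehyde, 1 ug/ml Hoechst), then counted on 4× images. Relative viability is the nuclei count in treated wells divided by that in vehicle wells. Values are medians of duplicate plates.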

[2] = tested on: A-427
Summary of the method: as §1

[3] = tested on: BEN
Summary of the method: as §1

[4] = tested on: COR-L 105
Summary of the method: as §1

[5] = tested on: COR-L23
Summary of the method: as §1

[6] = tested on: EKVX
Summary of the method: as §1

[7] = tested on: HARA
Summary of the method: as §1

[8] = tested on: HCC-15
Summary of the method: as §1

[9] = tested on: HCC-44
Summary of the method: as §1

[10] = tested on: HCC-827
Summary of the method: as §1

[11] = tested on: LK-2
Summary of the method: as §1

[12] = tested on: NCI-H1437
Summary of the method: as §1

[13] = tested on: NCI-H1666
Summary of the method: as §1

[14] = tested on: NCI-H1792
Summary of the method: as §1

[15] = tested on: NCI-H1975
Summary of the method: as §1

[16] = tested on: NCI-H23
Summary of the method: as §1

[17] = tested on: NCI-H358
Summary of the method: as §1

[18] = tested on: NCI-H441
Summary of the method: as §1

[19] = tested on: NCI-H596
Summary of the method: as §1

[20] = tested on: NCI-H650
Summary of the method: as §1

[21] = tested on: NCI-H838
Summary of the method: as §1

[22] = tested on: SK-MES-1
Summary of the method: as §1

[23] = tested on: SW 900
Summary of the method: as §1

How did the relative viability ([1]; first compound 0.005 µM) turn out when `CC1(C)CCC(c2ccc(Cl)cc2)=C(CN2CCN(c3ccc(C(=O)NS(=O)(=O)c4ccc(N[C@H](CCN5CCOCC5)CSc5ccccc5)c(S(=O)(=O)C(F)(F)F)c4)cc3)CC2)C1` [Navitoclax] + O=C(c1cc(Cc2n[nH]c(=O)c3ccccc23)ccc1F)N1CCN(C(=O)C2CC2)CC1 [Olaparib] (partner 8 µM) was run?
Its relative viability is 0.829.

And the relative viability ([1]; first compound 0.01581 µM)?
Its relative viability is 0.871.

What about the relative viability ([1]; first compound 0.05 µM) of the same compound?
The relative viability was 0.806.

What about the relative viability ([1]; first compound 0.1581 µM) of the same compound?
Its relative viability is 0.832.

What about the relative viability ([1]; first compound 0.5 µM) of the same compound?
Its relative viability is 0.85.

What about the relative viability ([2]; first compound 0.005 µM) of the same compound?
The relative viability was 0.71.

And the relative viability ([2]; first compound 0.01581 µM)?
The relative viability was 0.682.

What about the relative viability ([2]; first compound 0.05 µM) of the same compound?
Its relative viability is 0.782.

What about the relative viability ([2]; first compound 0.1581 µM) of the same compound?
The relative viability was 0.808.

What about the relative viability ([2]; first compound 0.5 µM) of the same compound?
Its relative viability is 0.737.

And the relative viability ([3]; first compound 0.005 µM)?
Its relative viability is 1.07.

What about the relative viability ([3]; first compound 0.01581 µM) of the same compound?
The relative viability was 1.06.

What about the relative viability ([3]; first compound 0.05 µM) of the same compound?
The relative viability was 0.862.

And the relative viability ([3]; first compound 0.1581 µM)?
Its relative viability is 1.05.

And the relative viability ([3]; first compound 0.5 µM)?
Its relative viability is 0.595.

What about the relative viability ([4]; first compound 0.005 µM) of the same compound?
Its relative viability is 0.707.

And the relative viability ([4]; first compound 0.01581 µM)?
Its relative viability is 0.749.

What about the relative viability ([4]; first compound 0.05 µM) of the same compound?
The relative viability was 0.664.

What about the relative viability ([4]; first compound 0.1581 µM) of the same compound?
Its relative viability is 0.614.

And the relative viability ([4]; first compound 0.5 µM)?
Its relative viability is 0.666.

What about the relative viability ([5]; first compound 0.005 µM) of the same compound?
Its relative viability is 0.374.

What about the relative viability ([5]; first compound 0.01581 µM) of the same compound?
Its relative viability is 0.405.

And the relative viability ([5]; first compound 0.05 µM)?
The relative viability was 0.375.

What about the relative viability ([5]; first compound 0.1581 µM) of the same compound?
The relative viability was 0.367.

And the relative viability ([5]; first compound 0.5 µM)?
The relative viability was 0.398.

What about the relative viability ([6]; first compound 0.005 µM) of the same compound?
Its relative viability is 0.887.

What about the relative viability ([6]; first compound 0.01581 µM) of the same compound?
The relative viability was 0.994.

What about the relative viability ([6]; first compound 0.05 µM) of the same compound?
The relative viability was 0.784.

What about the relative viability ([6]; first compound 0.1581 µM) of the same compound?
The relative viability was 0.891.

And the relative viability ([6]; first compound 0.5 µM)?
The relative viability was 0.885.

What about the relative viability ([7]; first compound 0.005 µM) of the same compound?
Its relative viability is 0.763.

What about the relative viability ([7]; first compound 0.01581 µM) of the same compound?
The relative viability was 0.752.

And the relative viability ([7]; first compound 0.05 µM)?
The relative viability was 0.579.

And the relative viability ([7]; first compound 0.1581 µM)?
Its relative viability is 0.789.

And the relative viability ([7]; first compound 0.5 µM)?
The relative viability was 0.875.

And the relative viability ([8]; first compound 0.005 µM)?
Its relative viability is 0.716.

What about the relative viability ([8]; first compound 0.01581 µM) of the same compound?
Its relative viability is 0.787.

And the relative viability ([8]; first compound 0.05 µM)?
The relative viability was 0.626.

And the relative viability ([8]; first compound 0.1581 µM)?
The relative viability was 0.67.

What about the relative viability ([8]; first compound 0.5 µM) of the same compound?
The relative viability was 0.778.

And the relative viability ([9]; first compound 0.005 µM)?
The relative viability was 0.971.

What about the relative viability ([9]; first compound 0.01581 µM) of the same compound?
The relative viability was 0.98.

And the relative viability ([9]; first compound 0.05 µM)?
Its relative viability is 0.887.

What about the relative viability ([9]; first compound 0.1581 µM) of the same compound?
The relative viability was 0.943.

And the relative viability ([9]; first compound 0.5 µM)?
Its relative viability is 0.932.

What about the relative viability ([10]; first compound 0.005 µM) of the same compound?
Its relative viability is 0.714.

And the relative viability ([10]; first compound 0.01581 µM)?
Its relative viability is 0.669.

What about the relative viability ([10]; first compound 0.05 µM) of the same compound?
Its relative viability is 0.531.

What about the relative viability ([10]; first compound 0.1581 µM) of the same compound?
The relative viability was 0.638.

And the relative viability ([10]; first compound 0.5 µM)?
The relative viability was 0.632.

What about the relative viability ([11]; first compound 0.005 µM) of the same compound?
Its relative viability is 0.797.

And the relative viability ([11]; first compound 0.01581 µM)?
The relative viability was 0.744.

And the relative viability ([11]; first compound 0.05 µM)?
Its relative viability is 0.618.

What about the relative viability ([11]; first compound 0.1581 µM) of the same compound?
The relative viability was 0.726.

What about the relative viability ([11]; first compound 0.5 µM) of the same compound?
Its relative viability is 0.798.

And the relative viability ([12]; first compound 0.005 µM)?
Its relative viability is 0.619.

And the relative viability ([12]; first compound 0.01581 µM)?
The relative viability was 0.659.

And the relative viability ([12]; first compound 0.05 µM)?
Its relative viability is 0.655.

And the relative viability ([12]; first compound 0.1581 µM)?
Its relative viability is 0.629.

And the relative viability ([12]; first compound 0.5 µM)?
The relative viability was 0.656.

And the relative viability ([13]; first compound 0.005 µM)?
The relative viability was 0.749.

What about the relative viability ([13]; first compound 0.01581 µM) of the same compound?
The relative viability was 0.71.

What about the relative viability ([13]; first compound 0.05 µM) of the same compound?
Its relative viability is 0.683.

And the relative viability ([13]; first compound 0.1581 µM)?
Its relative viability is 0.765.

What about the relative viability ([13]; first compound 0.5 µM) of the same compound?
The relative viability was 0.822.

And the relative viability ([14]; first compound 0.005 µM)?
Its relative viability is 0.408.

What about the relative viability ([14]; first compound 0.01581 µM) of the same compound?
The relative viability was 0.662.

And the relative viability ([14]; first compound 0.1581 µM)?
The relative viability was 0.386.

And the relative viability ([14]; first compound 0.5 µM)?
Its relative viability is 0.326.

What about the relative viability ([15]; first compound 0.005 µM) of the same compound?
The relative viability was 0.77.

And the relative viability ([15]; first compound 0.01581 µM)?
The relative viability was 0.854.

And the relative viability ([15]; first compound 0.05 µM)?
The relative viability was 0.773.

And the relative viability ([15]; first compound 0.1581 µM)?
The relative viability was 0.813.

And the relative viability ([15]; first compound 0.5 µM)?
Its relative viability is 0.755.

And the relative viability ([16]; first compound 0.005 µM)?
Its relative viability is 0.328.

What about the relative viability ([16]; first compound 0.01581 µM) of the same compound?
The relative viability was 0.301.

What about the relative viability ([16]; first compound 0.05 µM) of the same compound?
The relative viability was 0.272.

And the relative viability ([16]; first compound 0.1581 µM)?
Its relative viability is 0.291.

And the relative viability ([16]; first compound 0.5 µM)?
Its relative viability is 0.343.

And the relative viability ([17]; first compound 0.005 µM)?
The relative viability was 0.566.

And the relative viability ([17]; first compound 0.01581 µM)?
The relative viability was 0.751.

What about the relative viability ([17]; first compound 0.05 µM) of the same compound?
Its relative viability is 0.663.

And the relative viability ([17]; first compound 0.1581 µM)?
Its relative viability is 0.536.

What about the relative viability ([17]; first compound 0.5 µM) of the same compound?
Its relative viability is 0.585.

And the relative viability ([18]; first compound 0.005 µM)?
The relative viability was 0.529.

And the relative viability ([18]; first compound 0.01581 µM)?
Its relative viability is 0.528.

And the relative viability ([18]; first compound 0.05 µM)?
The relative viability was 0.627.

What about the relative viability ([18]; first compound 0.1581 µM) of the same compound?
The relative viability was 0.429.

And the relative viability ([18]; first compound 0.5 µM)?
Its relative viability is 0.5.

What about the relative viability ([19]; first compound 0.005 µM) of the same compound?
Its relative viability is 0.663.

And the relative viability ([19]; first compound 0.01581 µM)?
Its relative viability is 0.758.

What about the relative viability ([19]; first compound 0.05 µM) of the same compound?
Its relative viability is 0.533.

What about the relative viability ([19]; first compound 0.1581 µM) of the same compound?
Its relative viability is 0.598.

What about the relative viability ([19]; first compound 0.5 µM) of the same compound?
The relative viability was 0.626.

And the relative viability ([20]; first compound 0.005 µM)?
Its relative viability is 0.395.

And the relative viability ([20]; first compound 0.01581 µM)?
Its relative viability is 0.453.

What about the relative viability ([20]; first compound 0.05 µM) of the same compound?
The relative viability was 0.35.

What about the relative viability ([20]; first compound 0.1581 µM) of the same compound?
Its relative viability is 0.362.

What about the relative viability ([20]; first compound 0.5 µM) of the same compound?
The relative viability was 0.386.

What about the relative viability ([21]; first compound 0.005 µM) of the same compound?
Its relative viability is 0.775.

And the relative viability ([21]; first compound 0.01581 µM)?
Its relative viability is 0.818.

And the relative viability ([21]; first compound 0.05 µM)?
Its relative viability is 0.834.

What about the relative viability ([21]; first compound 0.1581 µM) of the same compound?
Its relative viability is 0.775.

And the relative viability ([21]; first compound 0.5 µM)?
Its relative viability is 0.768.

And the relative viability ([22]; first compound 0.005 µM)?
The relative viability was 0.648.

What about the relative viability ([22]; first compound 0.01581 µM) of the same compound?
Its relative viability is 0.677.

And the relative viability ([22]; first compound 0.05 µM)?
The relative viability was 0.775.

And the relative viability ([22]; first compound 0.1581 µM)?
The relative viability was 0.636.

And the relative viability ([22]; first compound 0.5 µM)?
The relative viability was 0.814.

What about the relative viability ([23]; first compound 0.005 µM) of the same compound?
Its relative viability is 0.936.

What about the relative viability ([23]; first compound 0.01581 µM) of the same compound?
The relative viability was 1.01.

And the relative viability ([23]; first compound 0.1581 µM)?
The relative viability was 0.947.

And the relative viability ([23]; first compound 0.5 µM)?
Its relative viability is 0.841.
